Experimental data published in US20150094348A1, “GPR17-MODULATING COMPOUNDS, DIAGNOSTIC AND THERAPEUTIC USES THEREOF” (Centro Cardiologico Monzino S.p.A., priority 2010, published 2015).
Marks after values point to notes of the source that are not given here.

Key:
human receptor GPR17 = target: T1, human receptor GPR17 (Homo sapiens, UniProt Q13304); assay: [35S]GTPγS binding assay on membranes of 1321N1 cells transfected with human GPR17; type: biochemical; settings: for EC50 / Emax: [35S]GTPγS binding; for EC50: 1321N1 cells expressing human GPR17, mean±SEM of three experiments; for Emax: LTC4 at 100 nM, in % (unit assumed); for % Emax vs standard: efficacy relative to LTC4 set to 100%; for effect of antagonist on concentration-response curve of the compound: in presence of cangrelor or montelukast
T1 construct: expressed in transfected cells; host or cells: human 1321N1 astrocytoma cells, calcium phosphate transfection with pcDNA3.1; plasma membranes used
T1 sequence (Q13304 29-367 limits assumed): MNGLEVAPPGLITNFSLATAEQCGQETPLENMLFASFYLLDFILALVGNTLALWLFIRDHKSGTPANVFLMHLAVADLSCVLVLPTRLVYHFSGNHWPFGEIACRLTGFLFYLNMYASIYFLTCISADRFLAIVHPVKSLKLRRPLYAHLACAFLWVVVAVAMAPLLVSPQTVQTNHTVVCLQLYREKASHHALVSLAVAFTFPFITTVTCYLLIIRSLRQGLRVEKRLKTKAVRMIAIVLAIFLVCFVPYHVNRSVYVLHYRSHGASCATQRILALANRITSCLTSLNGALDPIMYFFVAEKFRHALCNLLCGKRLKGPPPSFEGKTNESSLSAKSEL
Protocol: A—The compounds according to the invention were evaluated for their functional activity on GPR17 using a well-known assay for GPCRs, the [^35S]GTPγS binding assay, which is based on the ability of the agonist to increase radioactive GTP binding when a GPCR is activated. The antagonist activity is evaluated according to the ability to counteract the increased [^35S]GTPγS binding induced by the LTC4 reference agonist.
The activation of GPCRs by agonists stimulates the dissociation of GDP from G-protein, thus increasing GTP binding in its place. This increase in GTP binding to G-protein can be quantified in vitro with [^35S]GTPγS. The effect of GPCR activation on [^35S]GTPγS binding is catalytic, because it increases the [^35S]GTPγS binding rate rather than [^35S]GTPγS binding equilibrium. […] For some GPCRs, the binding stimulated by the agonist (ie. the difference between GTP binding in the presence and absence of the agonist) increases with time, peaks and then falls to zero; optimal increases in [^35S]GTPγS binding induced by the agonist are often obtained before equilibrium is attained, rather than at equilibrium. […] The control and transfected cells were homogenised in 5 mM Tris-HCl and 2 mM EDTA (pH 7.4) and centrifuged at 48000 g for 15 min at 4° C. The resulting pellets (plasma membranes) were washed in 50 mM Tris-HCl and 10 mM MgCl2 (pH 7.4) and stored at −80° C. until use.
The Graph-Pad Prism program was used for the analysis and graphic presentation of the [^35S]GTPγS binding data. All the data are shown as the mean±SEM of three different experiments. The data were tested for statistical significance with the paired Student's t test or analysis of variance (one-way ANOVA), as appropriate. When significant differences were observed, the Newman-Keuls multiple comparison test (one-way ANOVA) was performed. A value of P<0.05 was considered significant.

[1] = [35S]GTPγS binding assay on 1321N1 cells transfected only with control vector pcDNA3.1; type: biochemical, human; settings: cells transfected only with pcDNA3.1
Protocol: Human 1321N1 cells were cultured as described [Fumagalli et al., 2004, Biochem Pharmacol 68:113]. For the [^35S]GTPγS assay, 10^6 1321N1 cells were seeded on 75 cm^2 flasks and transfected by the calcium phosphate precipitation method, with the vector pcDNA3.1 containing the construct encoding for human receptor GPR17, and with the empty vector pcDNA3.1 as control [Fumagalli et al., 2004, Biochem Pharmacol 68:113].
The activation of GPCRs by agonists stimulates the dissociation of GDP from G-protein, thus increasing GTP binding in its place. This increase in GTP binding to G-protein can be quantified in vitro with [^35S]GTPγS. The effect of GPCR activation on [^35S]GTPγS binding is catalytic, because it increases the [^35S]GTPγS binding rate rather than [^35S]GTPγS binding equilibrium. Consequently, the [^35S]GTPγS binding assay is intrinsically a functional concentration-response curve, not an equilibrium binding assay [Lazareno, 1999, Methods Mol Biol 1106:231; Milligan, 2003, Trends Pharmacol Ski 24:87]. For some GPCRs, the binding stimulated by the agonist (ie. the difference between GTP binding in the presence and absence of the agonist) increases with time, peaks and then falls to zero; optimal increases in [^35S]GTPγS binding induced by the agonist are often obtained before equilibrium is attained, rather than at equilibrium. […]

[2] = system: oligodendrocyte precursor cells (OPCs); assay: Pro-myelinating activity assay on oligodendrocyte precursor cell (OPC) cultures (MBP-positive cells); type: cell-based, Sprague-Dawley rat; settings: 48 h after start of treatment
Protocol: The OPCs were cultured on plates containing 24 mm slides coated with poly-D,L-ornithine in Neurobasal medium with 2% of B27 supplement (Invitrogen), L-glutamine (2 mM) and enriched with growth factors PDGF and betaFGF (10 ng/ml) to promote proliferation. In order to promote differentiation, after 24 h, the culture medium was replaced with Neurobasal with 2% B27 without growth factors and with the addition of triiodothyronine T3 (400 ng/ml).
The ability of the agonists to promote myelination was evaluated by measuring the increase in the number of cells positive for the MBP marker present in the culture compared with the control treated with the carrier alone. In particular, 48 h after treatment with the agonists, the cells were fixed in 4% paraformaldehyde in 0.1 M PBS and stained by immunocytochemistry using an antibody specific for MBP. […] The slides were mounted with Dako Fluorescent Mounting Medium (Dako, Milan) on cover slips and analysed with an inverted optical microscope (AXIOVERT 200 M, Zeiss, Milan). The images were processed and acquired with Axiovision 4.4 software, in the rhodamine fluorescence channel for MBP. The effects of the treatments on OPC myelination were quantified by manual count using ImageJ software (Wayne Rasband, Research Services Branch of the National Institute of Mental Health of Bethesda, USA).

SMILES	EC50 (human receptor GPR17) [nM]	Emax (human receptor GPR17)	% Emax vs standard (human receptor GPR17)	other results
COCCn1nnnc1C(c1cc2cc(OC)ccc2[nH]c1=O)N(CCc1ccccc1)Cc1ccccc1 (centres unmarked) [(II), 6-methoxy-3-[[1-(2-methoxyethyl)-1H-tetrazol-5-yl][(2-phenylethyl)(phenylmethyl)-amino]methyl]-2(1H)-quinolinone]	3.67 ± 0.51	206.8 ± 8.3	142.8*** %	–
CCCCC/C=C\C\C=C/C=C/C=C/[C@@H](SC[C@H](NC(=O)CC[C@H](N)C(=O)O)C(=O)NCC(=O)O)[C@@H](O)CCCC(=O)O [LTC4, reference compound]	–	144.8 ± 0.4	100%	response in [35S]GTPγS binding in control-vector cells [1]: unable to induce a response
CCCCC/C=C\C\C=C/C=C/C=C/[C@@H](SC[C@H](N)C(=O)O)[C@@H](O)CCCC(=O)O [LTE4]	–	–	–	pro-myelinating activity, in words (mature cells expressing MBP) [2]: increase the number of mature cells in culture expressing MBP
O=c1ccn([C@@H]2O[C@H](COP(=O)(O)OP(=O)(O)O)[C@@H](O)[C@H]2O)c(=O)[nH]1 [UDP]	–	–	–	pro-myelinating activity, in words (mature cells expressing MBP) [2]: increase the number of mature cells in culture expressing MBP
CSCCNc1nc(SCCC(F)(F)F)nc2c1ncn2[C@@H]1O[C@H](COP(=O)(O)OP(=O)(O)C(Cl)(Cl)P(=O)(O)O)[C@@H](O)[C@H]1O [cangrelor, reference compound]	–	–	–	type of antagonism on concentration-response curves of compound of formula (I) (human receptor GPR17; curves of compound (I) in presence of different concentrations of the antagonist (FIG. 1 C, D)): competitive antagonist

The next lines start with results.

EC50 (human receptor GPR17) [nM]	Emax (human receptor GPR17)	% Emax vs standard (human receptor GPR17)	SMILES	other results
0.109 ± 0.028	145.6 ± 5.7	100.6%	COc1ccc(-n2c(SC(C)C(=O)Nc3ccccc3)nnc2-c2ccccc2OC)cc1 (centres unmarked) [(I), 2-[[5-(2-methoxyphenyl)-4-(4-methoxyphenyl)-4H-1,2,4-triazol-3-yl]thio]-N-phenylpropanamide]	effect of antagonist on concentration-response curve of the compound (human receptor GPR17): shifted to the right (increase in EC50), but no effect on efficacy was observed; effect of antagonist on concentration-response curve of the compound (human receptor GPR17; listed as I): reduction in the efficacy
2.27 ± 0.07	173.5 ± 0.5	119.8*** %	COc1ccc(N(C(=O)Cn2nnc3ccccc32)C(C(=O)NCC2CCCO2)c2ccc(F)cc2)cc1 (centres unmarked) [(IV), N-[1-(4-fluorophenyl)-2-oxo-2-[[(tetrahydro-2-furanyl)methyl]amino]ethyl]-N-(4-methoxyphenyl)-1H-benzotriazol-1-acetamide]	–
0.268 ± 0.009	161.5 ± 2.4	111.5** %	O=C(Nc1ccc(C(F)(F)F)cc1)N1CCC(c2nc(O)c3nnn(Cc4ccccc4Cl)c3n2)CC1 [(V), 4-[3-[(2-chlorophenyl)methyl]-6,7-dihydro-7-oxo-3H-1,2,3-triazole[4,5-d]pyrimidin-5-yl]-N-[4-(trifluoromethyl)phenyl]-1-piperidinecarboxamide]	–
